How the values were obtained:
[1] = Inhibition of 20s constitutive proteasome beta1 caspase-like activity in human erythrocytes using […] as substrate preincubated for 10 mins followed by substrate addition and measured after 6 hrs by fluorescence assay
[2] = Inhibition of 20s constitutive proteasome beta2 trypsin-like activity in human erythrocytes using Boc-Leu-Arg-Arg-MCA as substrate preincubated for 10 mins followed by substrate addition and measured after 6 hrs by fluorescence assay

Compound | IC50 [1] [µM] | IC50 [2] [µM]
C1=C\CCc2cc3c[n+](c2)CCCC/C=C\CC[C@@H]2CN(CCCC/1)CC[C@@H]32 | 4.7 | –
C1=C2CN3CCCC/C=C\CC[C@@H]4CN(CCCC/C=C\CC[C@H]1C3)CC[C@@H]24 | 0.48 | 6.3

Reference: BindingDB's records for doi:10.1016/j.bmcl.2018.11.028 (Kumamoto University, 2019)
